The source of these data is patent publication EP4800013A1, “PARG INHIBITOR” (Shanghai Qilu Pharmaceutical Research and Development …, priority 2023, dated 2025).

Molecules are shown by their SMILES.

For one assay, the target named is T1, PARG (Homo sapiens, UniProt Q86W56).
T1 construct: made in house
Briefly: Enzymatic inhibitory activity against PARG, HTRF assay. The assay is classed as biochemical. To be noted: HTRF; PARylated PARP1 protein as substrate; 60 minutes at room temperature; read-out: IC50 against PARG enzyme. The method, boiled down:
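Purified PARG pre-incubated with compounds (top 10 µM, 3- to 5-fold dilutions, duplicates) 15 min at room temperature, then PARylated PARP1 substrate added for 60 min in Tris pH 7.4 buffer with DTT, EDTA/EGTA, KCl. HTRF (His-Tb/SA-XL665) read-out; IC50 by four-parameter logistic fit, normalised to DMSO and control-inhibitor wells.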
On the technique in general: Time-resolved FRET reads energy transfer from a long-lived donor to a nearby acceptor.

The test system of a further assay is KURAMOCHI cells. The assay can be described thus: Inhibition of proliferation of KURAMOCHI cells (CellTiter-Glo, intracellular ATP). It is filed as cell-based. To be noted: 168 h, incubated for 7 days, read-out: IC50 against KURAMOCHI cells. Put shortly: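 KURAMOCHI cells seeded at 4000/well, incubated overnight, then treated with 9-point 1:4 compound series from 10 µM (0.5% DMSO) for 7 days at 37°C, 5% CO2. Viability read by CellTiter-Glo luminescence; inhibition normalised to medium-only (100%) and DMSO (0%) controls, IC50 from variable-slope four-parameter fit.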

T1 sequence (Q86W56 whole entry): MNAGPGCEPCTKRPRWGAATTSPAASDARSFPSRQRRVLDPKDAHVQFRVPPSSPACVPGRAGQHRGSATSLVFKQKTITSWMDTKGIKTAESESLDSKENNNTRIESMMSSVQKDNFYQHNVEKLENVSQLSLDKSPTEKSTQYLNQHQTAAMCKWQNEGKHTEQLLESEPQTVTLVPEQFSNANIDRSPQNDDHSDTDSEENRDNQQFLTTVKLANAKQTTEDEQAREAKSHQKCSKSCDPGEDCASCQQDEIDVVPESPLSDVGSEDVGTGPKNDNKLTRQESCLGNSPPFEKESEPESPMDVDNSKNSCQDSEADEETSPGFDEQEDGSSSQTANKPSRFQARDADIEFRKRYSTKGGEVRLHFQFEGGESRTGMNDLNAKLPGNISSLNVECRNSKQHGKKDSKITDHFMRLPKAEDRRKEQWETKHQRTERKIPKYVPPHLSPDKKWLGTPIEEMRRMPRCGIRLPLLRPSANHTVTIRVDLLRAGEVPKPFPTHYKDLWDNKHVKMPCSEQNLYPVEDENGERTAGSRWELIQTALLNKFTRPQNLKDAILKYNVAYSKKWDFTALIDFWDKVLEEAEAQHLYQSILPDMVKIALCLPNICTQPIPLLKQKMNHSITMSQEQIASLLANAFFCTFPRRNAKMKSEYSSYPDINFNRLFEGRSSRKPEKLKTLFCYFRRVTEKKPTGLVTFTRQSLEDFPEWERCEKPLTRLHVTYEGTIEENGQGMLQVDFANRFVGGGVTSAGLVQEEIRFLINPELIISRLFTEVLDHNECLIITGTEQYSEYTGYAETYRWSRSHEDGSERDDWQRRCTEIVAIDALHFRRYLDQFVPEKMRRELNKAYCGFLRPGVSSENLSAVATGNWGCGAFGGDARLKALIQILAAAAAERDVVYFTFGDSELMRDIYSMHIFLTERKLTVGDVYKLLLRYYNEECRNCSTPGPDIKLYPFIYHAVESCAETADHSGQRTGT

Turning to `CCc1nc2n(-c3nnc(C(F)F)s3)c3cc(S(=O)(=O)NC4(C)CC4)cc(N4C[C@H](C)N[C@@H](C)C4)c3n2n1` [Compound 065R], the IC50 was 0.4 nM at PARG and 2 nM in the assay on KURAMOCHI cells.
For the molecule `C[C@H]1CN(c2cc(S(=O)(=O)NC3(C)CC3)cc3c2n2nc(C(F)F)nc2n3-c2nnc(C(F)F)s2)C[C@H](C)N1` [Compound 065S], the IC50 was 1.4 nM at PARG and 2 nM in the assay on KURAMOCHI cells.
Regarding `C[C@H]1CN(c2cc(S(=O)(=O)NC3(C)CC3)cc3c2n2nc(C(F)(F)F)nc2n3-c2nnc(C(F)F)s2)C[C@H](C)N1` [Compound 065W], the IC50 at PARG is 0.8 nM; in the assay with KURAMOCHI cells, 4 nM.

By IC50 is commonly meant the midpoint of a concentration-inhibition curve.
